Laboratory results published in patent US9090776B2, “Squarylium dyes” (Exciton, Inc., priority 2012, dated 2015).

Assay: Solubility of squarylium dye in dichloromethane
Assay type: physicochemical
Description: Subsequent conversion to the squarylium dye can yield desirable photophysical, solubility, thermal stability, and/or light stability properties. For example, as shown in the FIGURE, the ortho-, ortho- isomer of compound IV has a solubility of about 0.2 gm/L in dichloromethane, CH2Cl2. In comparison, the corresponding meta-, meta- and para-, para- isomers of compound have solubilities of about 0.6 gm/L and about 0.5 gm/L in CH2Cl2, respectively.

## CC1N(Cc2cccc(NC(=O)c3ccccc3)c2)c2cc(NC(=O)c3ccccc3)c(C3=C([O-])/C(=c4/cc5c(cc4NC(=O)c4ccccc4)=[N+](Cc4cccc(NC(=O)c6ccccc6)c4)C(C)C5(C)C)C3=O)cc2C1(C)C (stereo not drawn) [meta-, meta- isomer of compound IV]
  solubility in dichloromethane, CH2Cl2: about 0.6 gm/L
